# From patent US20060078535A1, “Anticancer compounds and methods” (The Regents of the University of Michigan, priority 2004, published 2006)
# Entries after “also recorded” stand apart in the source; their conditions may differ. Where no end group is shown, it is not given here. [ ]: non-standard residue; d: D form. hCys = N[C@@H](CCS)C(=O)O
# B1: Ac-PHSCNGGK(biotin)-NH2 (peptide)
# peptide: Ac-PHSCNGG-{K(biotin)-NH2}
# modifications: also: further groups not given here
# notes: also called biotinylated PHSCN peptide
# Tests used:
# [1] = test system: DU-145 metastatic prostate cancer cells; experiment: Invasion of fibronectin-depleted Matrigel by DU-145 cells; format: cell-based, human; conditions: 0.5 μl/ml peptide added to gelatin-panned Matrigel
# Procedure: This example describes a purification approach for removal of plasma fibronectin (and/or cellular fibronectin) from a substrate (Matrigel). In this example, removal was attempted by successive panning on gelatin. Eight wells of 24-well plate were coated with a 2% gelatin solution (the gelatin was obtained from Becton Dickinson Labware, Catalog #11868). The wells were filled with the gelatin solution which had been heated to 50° C. and incubated for 3 minutes. Then the solution was removed and the wells were allowed to air dry. Following drying, the wells were thoroughly rinsed with ddH2O followed by two rinses with PBS. The plates were again allowed to dry; thereafter they were stored at −20° C. until use. Matrigel was thawed on ice and then added to one of the wells of a gelatin-coated plate (between 800 μl and 1 ml of Matrigel was added to a well of a 24-well plate). The plate was placed in a bucket of ice in a […] room on an orbital shaker where the Matrigel was incubated in the well for two hours (although overnight incubation can be used). Following the incubation, the Matrigel was moved from the first well to a second well and then incubated for two hours under the same conditions. This process was repeated until the Matrigel had been incubated on all eight wells of the gelatin-coated plate.
# Following the depletion of the Matrigel, it was collected in Eppendorf tubes. […]
# keratinocytes = experiment: SU-ECM invasion by keratinocytes; format: cell-based; conditions: serum-free SU-ECM
# From the text: Since, during wound reepithelialization, keratinocytes migrate through the connective tissue of the provisional matrix to “wall off” portions of the wound, as well as through the adjacent stroma, it is not surprising that they are also stimulated to migrate through the matrix of SU-ECM invasion substrates by the PHSRN (SEQ ID NO: 1) sequence. […] Recruitment of fibroblasts or monocytes/macrophages whose paracrine, regulatory effects on a variety of neighboring cells are required for the early stages of wound healing is contemplated as a highly efficient and effective way to stimulate the cascade of regulatory interactions involved in wound healing because these cells will secrete the active factors or cytokines in the correct temporal sequences and spatial locations to ensure their optimal activities. Because it efficiently induces keratinocyte migration through the extracellular matrix in vitro, the PHSRN (SEQ ID NO: 1) peptide is also likely to stimulate wound reepithelialization directly. The use of the PHSRN (SEQ ID NO: 1) peptide or structurally related molecules according to the present invention is to stimulate the entry of cells such as fibroblasts and monocyte/macrophages into the provisional matrix of a wound, so that the entering cells themselves secrete the factors and cytokines active in inducing or potentiating wound healing. […]
# [2] = test system: DU-145 prostate cancer cells; experiment: SU-ECM invasion assay, DU-145 prostate cancer cells; format: cell-based, human; conditions: DU-145 cells
# Procedure: (§1) Adult Strongylocentrotus purpuratus sea urchins were obtained from Pacific BioMarine, and their embryos were cultured to the early pluteus stage in artificial sea water at 15° C. SU-ECM were prepared from them by treatment with nonionic detergent and strerilized by dilution in the appropriate media.
# (§2) Cells were harvested by rinsing in Hanks' balanced salt solution, followed by brief treatment with 0.25% trypsin, 0.02% EDTA, and pelleting and resuspension in the appropriate medium with or without 5% FCS at a density of about 50,000 cells per ml. […]
# (§3) Invasion assays were coded and scored blindly by microscopic examination under phase contrast at 200- and 400-fold magnification. Each cell contacting an SU-ECM was scored for its position relative to the exterior or interior surfaces. […] The minimum viability of the cells in each assay was always ascertained at the time of assay by determining the fraction of spread, adherent cells on the bottom of each well scored.
# (§4) An invasion frequency is defined as the fraction of cells in contact with basement membranes which were located in their interiors at the time of assay. […] Invasion frequencies were determined multiple times for each cell type assayed. For each type of cell assayed the mean and standard deviation of the invasion frequencies were calculated. […]
# [3] = test system: SUM-52 PE breast cancer cells; experiment: SU-ECM invasion assay, SUM-52 PE breast cancer cells; format: cell-based, human; conditions: SUM-52 cells
# Procedure: as §1, §2, §3, §4
# [4] = test system: normal, neonatal fibroblasts; experiment: Invasion of gelatin- and antibody-depleted Matrigel by fibroblasts; format: cell-based; conditions: gelatin plus antibody panned Matrigel
# Procedure: Anti-fibronectin antibody-coated wells: Wells of a 24-well plate were coated with an anti-fibronectin antibody. A mouse monoclonal antibody to human fibronectin was obtained from Oncogene Science (Catalog #CP13). Each well was incubated with 1 ml of antibody at a concentration of 30 μl/ml for 2 hours at room temperature. Each well was then incubated with a solution of 3% BSA in PBS for 2 hours at room temperature. Following the two incubation periods, the wells were thoroughly washed with PBS and stored at −20° C. until use.
# Depleting Matrigel of Fibronectin: Matrigel was panned over eight gelatin-coated wells (as described above in Example 2) to remove most of the fibronectin and its fragments. Thereafter, the Matrigel was placed in the antibody-coated wells to remove any remaining fragments of fibronectin which contain the cell-binding domain but not the gelatin-binding domain. The Matrigel was incubated in an ice bucket on an orbital shaker at 4° C. for 2 hours. Once the Matrigel was depleted, it was collected in Eppendorf tubes. The firbonectin-depleted Matrigel was plated on a 48-well plate (150 μl/well), sterilized under a UV light for 10 minutes and incubated at 37° C. overnight. The Matrigel formed a gel and the following day, cells were added to the wells. […]
# [5] = test system: neonatal, human fibroblasts; experiment: SU-ECM basement membrane invasion by fibroblasts; format: cell-based; conditions: with or without serum as stated
# From the text: Since, during wound reepithelialization, keratinocytes migrate through the connective tissue of the provisional matrix to “wall off” portions of the wound, as well as through the adjacent stroma, it is not surprising that they are also stimulated to migrate through the matrix of SU-ECM invasion substrates by the PHSRN (SEQ ID NO: 1) sequence. […]
# as §3, §4
# MatLyLu (MLL) cells = experiment: SU-ECM invasion assay, rat MatLyLu (MLL) prostate carcinoma cells; format: cell-based; conditions: 10% FCS, varying concentrations
# Procedure: as §1, with “media. […]” for “media.”
# as §3, §4
# metastatic disease = conditions: human, in vivo
# Procedure: Livant et al., “The PHSCN Sequence As An Anti-Invasive For Human Prostate Carcinoma Cells And As An Anti-Tumorigenic And Anti-Metastatic Agent For Rat Prostate Cancer” Cancer Research 60:309-320 (2000). […] In another embodiment, however, PHSCN (SEQ ID NO:86) peptide may also induce apoptosis. Furthermore, thrice-weekly PHSCN (SEQ ID NO:86) peptide intravenous doses (0.1 to 0.5 mg/kg) prevent cancer progression in metastatic ovarian cancer and metastatic prostate cancer patients in the Phase I clinical trial, for over a 6 to 10 month period.
# [6] = test system: DU 145 human prostate carcinoma; conditions: mouse, in vivo; cited from earlier work
# [7] = target: T1, immobilized α5β1 integrin (UniProt P08648 42-1049; P05556 21-798); experiment: saturation binding of PHSCNGGK(biotin) to immobilized α5β1 integrin, read as optical density at 490 nm (FIG. 11)
# T1 construct: also called α5β1 integrin receptor; α5β1 integrin fibronectin receptor
# T1 sequence (P08648 42-1049, chain 1 of 2): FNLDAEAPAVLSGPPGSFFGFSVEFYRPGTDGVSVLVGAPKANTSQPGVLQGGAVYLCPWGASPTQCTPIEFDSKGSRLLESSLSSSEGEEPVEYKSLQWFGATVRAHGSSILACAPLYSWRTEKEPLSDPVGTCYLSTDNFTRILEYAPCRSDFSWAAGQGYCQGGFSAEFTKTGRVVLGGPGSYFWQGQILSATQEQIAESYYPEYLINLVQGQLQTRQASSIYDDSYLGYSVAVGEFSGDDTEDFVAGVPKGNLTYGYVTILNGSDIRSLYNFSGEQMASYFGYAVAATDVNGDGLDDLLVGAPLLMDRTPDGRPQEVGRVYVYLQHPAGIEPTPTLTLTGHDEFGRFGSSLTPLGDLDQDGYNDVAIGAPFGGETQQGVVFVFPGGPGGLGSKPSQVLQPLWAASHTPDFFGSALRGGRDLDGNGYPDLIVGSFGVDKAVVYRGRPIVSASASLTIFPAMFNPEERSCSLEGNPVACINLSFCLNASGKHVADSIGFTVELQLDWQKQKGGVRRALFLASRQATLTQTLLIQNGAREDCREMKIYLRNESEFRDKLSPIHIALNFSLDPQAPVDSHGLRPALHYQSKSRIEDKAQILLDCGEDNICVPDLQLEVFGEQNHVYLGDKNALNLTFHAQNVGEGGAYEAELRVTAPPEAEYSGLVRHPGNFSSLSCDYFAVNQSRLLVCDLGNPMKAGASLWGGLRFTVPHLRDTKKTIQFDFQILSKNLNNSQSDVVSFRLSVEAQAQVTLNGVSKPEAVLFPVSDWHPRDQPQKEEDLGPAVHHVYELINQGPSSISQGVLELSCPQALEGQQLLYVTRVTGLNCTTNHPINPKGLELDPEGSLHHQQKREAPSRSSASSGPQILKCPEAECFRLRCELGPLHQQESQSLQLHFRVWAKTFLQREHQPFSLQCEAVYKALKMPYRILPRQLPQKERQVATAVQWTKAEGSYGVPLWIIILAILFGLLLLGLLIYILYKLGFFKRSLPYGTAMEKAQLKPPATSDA
# T1 sequence (P05556 21-798, chain 2 of 2): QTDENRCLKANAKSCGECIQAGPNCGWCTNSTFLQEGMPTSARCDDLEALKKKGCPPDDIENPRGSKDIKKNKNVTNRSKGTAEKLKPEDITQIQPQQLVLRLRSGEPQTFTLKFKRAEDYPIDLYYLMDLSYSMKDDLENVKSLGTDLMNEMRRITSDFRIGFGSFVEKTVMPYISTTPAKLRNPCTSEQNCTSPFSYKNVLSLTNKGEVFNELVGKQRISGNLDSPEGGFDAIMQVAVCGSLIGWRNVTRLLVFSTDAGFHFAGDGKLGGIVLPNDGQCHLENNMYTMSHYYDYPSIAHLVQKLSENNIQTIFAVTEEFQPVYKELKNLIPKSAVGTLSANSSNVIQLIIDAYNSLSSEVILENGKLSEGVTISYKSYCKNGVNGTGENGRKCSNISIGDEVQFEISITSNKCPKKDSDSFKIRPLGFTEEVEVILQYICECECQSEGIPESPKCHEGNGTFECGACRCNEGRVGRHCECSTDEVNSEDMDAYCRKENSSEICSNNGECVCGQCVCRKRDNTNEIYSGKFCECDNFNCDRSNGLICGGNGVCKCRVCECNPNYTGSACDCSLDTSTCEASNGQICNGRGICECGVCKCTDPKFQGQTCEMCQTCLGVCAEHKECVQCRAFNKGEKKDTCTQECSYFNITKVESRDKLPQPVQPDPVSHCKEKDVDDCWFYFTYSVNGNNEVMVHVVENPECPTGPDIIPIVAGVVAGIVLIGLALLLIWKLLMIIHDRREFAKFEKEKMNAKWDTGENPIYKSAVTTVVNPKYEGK
molecule,measurement,setting,value
Pro-His-Ser-Arg-Asn (PHSRN),DU-145 invasiveness on depleted Matrigel,[1],sufficient to restore the full DU-145 invasiveness
same,keratinocyte invasion,keratinocytes,stimulate keratinocyte invasion of serum-free SU-ECM
same,induction of invasion of SU-ECM,[2],induced to invade the SU-ECM substrate
same,induction of invasion of SU-ECM,[3],induced to invade the SU-ECM substrate
same,fibroblast invasiveness on depleted Matrigel,[4],invasiveness of the fibroblasts could be induced
same,fibroblast invasion of SU-ECM basement membranes,[5],induced with the PHSRN (SEQ ID NO:1) peptide to invade serum-free SU-ECM
PHS(hC)N: homo-cysteine containing peptide (PHS[hCys]N),inhibition of serum-induced invasion,MatLyLu (MLL) cells,substantially inhibits invasion at lower concentrations; also recorded: completely inhibits invasion at higher concentrations
"Ac-PHSCN-NH2 (N-terminus and C-terminus assumed) [PHSCN, Pro-His-Ser-Cys-Asn]",total treatment-emergent serious adverse events,metastatic disease,11
same,tolerability of treated mice,[6],no obvious loss of vigor or difficulty in healing
intact plasma fibronectin: purified bovine plasma fibronectin (Sigma),fibroblast invasion of SU-ECM basement membranes,[5],fails to stimulate fibroblast invasion
B1,Kd,[7],272 nM
